Measured values published in patent publication US11230535B2, “CFTR regulators and methods of use thereof” (THE REGENTS OF THE UNIVERSITY OF CALIFORNIA, priority 2015, dated 2022).
Entries after “also recorded” stand apart in the source; their conditions may differ.

Key:
mouse colon = assay: Short-circuit current in freshly harvested mouse colon; conditions: freshly isolated mouse colon; read-out: EC50, increase in short-circuit current (Cl− secretion)
Description: Short-circuit current was measured in FRT cells stably expressing wild-type human CFTR cultured on porous filters as described. The basolateral solution contained 130 mM NaCl, 2.7 mM KCl, 1.5 mM KH2PO4, 1 mM CaCl2, 0.5 mM MgCl2, 10 mM glucose, and 10 mM Na-HEPES (pH 7.3, 37° C.). In the apical solution 65 mM NaCl was replaced by Na gluconate, and CaCl2 was increased to 2 mM, and the basolateral membrane was permeabilized with 250 μg/ml amphotericin B. Short-circuit current was measured in freshly harvested adult mouse colon at 37° C. using symmetrical Krebs-bicarbonate buffer.
Short-circuit current measurement. Short-circuit current was measured in FRT cells stably expressing wild-type human CFTR cultured on porous filters as described. The basolateral solution contained 130 mM NaCl, 2.7 mM KCl, 1.5 mM KH2PO4, 1 mM CaCl2, 0.5 mM MgCl2, 10 mM glucose, and 10 mM Na-HEPES (pH 7.3, 37° C.). In the apical solution 65 mM NaCl was replaced by Na gluconate, and CaCl2 was increased to 2 mM, and the basolateral membrane was permeabilized with 250 μg/ml amphotericin B. Short-circuit current was measured in freshly harvested adult mouse colon at 37° C. using symmetrical Krebs-bicarbonate buffer.

mouse liver microsomes = assay: In vitro metabolic stability in mouse liver microsomes; type: in vitro ADME
Description: CFTRact-J027 (5 μM) was incubated for specified times at 37° C. with mouse liver microsomes (1 mg protein/ml; Sigma-Aldrich) in potassium phosphate buffer (100 mM) containing 1 mM NADPH, as described. The mixture was then chilled on ice, and 0.5 ml of ice-cold ethyl acetate was added. Samples were centrifuged for 15 min at 3000 rpm, the supernatant evaporated to dryness, and the residue was dissolved in 100 μL mobile phase (acetonitrile:water, 3:1) for LC/MS and assayed as described above.
In vitro metabolic stability. CFTRact-J027 (5 μM) was incubated for specified times at 37° C. with mouse liver microsomes (1 mg protein/ml; Sigma-Aldrich) in potassium phosphate buffer (100 mM) containing 1 mM NADPH, as described. The mixture was then chilled on ice, and 0.5 ml of ice-cold ethyl acetate was added. Samples were centrifuged for 15 min at 3000 rpm, the supernatant evaporated to dryness, and the residue was dissolved in 100 μL mobile phase (acetonitrile:water, 3:1) for LC/MS and assayed as described above.

Nc1ccc([N+](=O)[O-])cc1-c1nc2ccccc2n(Cc2ccccc2)c1=O [CFTRact-J027, 3-(2-amino-5-nitrophenyl)-1-benzylquinoxalin-2(1H)-one]
EC50 (mouse colon): ~300 nM
elimination half-life in microsomes (mouse liver microsomes; 5 μM, mouse liver microsomes, NADPH): ~21 min
original compound remaining at 60 min (mouse liver microsomes; 60 min): 7%
hepatic microsomal metabolism, in words (mouse liver microsomes; mouse liver microsomes, NADPH): rapid hepatic metabolism; also recorded: rapidly metabolized
